Data from patent US9839214B2, “Solavetivone and 5-epi-beta-vertivone as pest repellants and pesticides” (EVOLVA, INC., priority 2012, dated 2017).

Key:
[1] = tested on: bed bug (Cimex lectularius); experiment: Extended bed bug repellency, same treated chambers with new bed bugs, Day 2; assay type: in vivo; details: for Repellancy / Repellancy, Averages: 0.5% active and 0.1% BHT in acetone on filter paper; for Repellancy / # bed bugs on the treated filter paper: Day 2, new bed bugs; for Repellancy: 50 bed bugs; for Repellancy, Averages / # bed bugs on the treated filter paper, Averages / time for which bed bugs are repelled following treatment: Day 2; for Repellancy, Averages / # bed bugs on the treated filter paper, Averages: average of 0.5-24 hr readings; for # bed bugs on the treated filter paper / # bed bugs on the treated filter paper, Averages: 0.5% active and 0.1% BHT in acetone, of 50 bed bugs; for time for which bed bugs are repelled following treatment: 0.5% active, extended test
Description: The bed bug (Cimex lectularius) treatment chambers described in part A above were used to test the duration of 0.5% solavetivone in acetone repellent effects. At the end of 24 hours, the old bed bugs were removed from each Petri dish and 10 new bed bugs were added to each dish, for a total of 50 bed bugs. The distribution of the new set of bed bugs was recorded at 0.5, 1, 1.5, 2, and 24 hours after their introduction to the chamber (Day 2). Observations were made and repellency was calculated as described in Section A above. […] The bed bug (Cimex lectularius) treatment chambers described in part A above were used to test the duration of 0.5% 5-epi-β-vetivone in acetone repellent effects. At the end of 24 hours, the old bed bugs were removed from each Petri dish and 10 new bed bugs were added to each dish, for a total of 50 bed bugs. The distribution of the new set of bed bugs was recorded at 0.5, 1, 1.5, 2, and 24 hours after their introduction to the chamber (Day 2). Observations were made and repellency was calculated as described in Section A above.

[2] = tested on: adult bed bugs (Cimex lectularius); experiment: Bed bug repellency on half-treated filter paper in Petri dish chambers, Day 1; assay type: in vivo; details: for Repellancy / Repellancy, Averages: 0.5% active and 0.1% BHT in acetone on filter paper; for Repellancy / Repellancy, Averages / # bed bugs on the treated filter paper / # bed bugs on the treated filter paper, Averages: Day 1; for Repellancy: 50 bed bugs; for Repellancy, Averages / # bed bugs on the treated filter paper, Averages: average of 0.5-24 hr readings; for # bed bugs on the treated filter paper / # bed bugs on the treated filter paper, Averages: 0.5% active and 0.1% BHT in acetone, of 50 bed bugs; for time for which bed bugs are repelled following treatment: 0.5% active, Day 1 test
Description: A formulation, containing 0.5% solavetivone and 0.1% butylated hydroxytoluene (BHT) in acetone was tested for efficacy for repelling adult bed bugs (Cimex lectularius). Treatment chambers were created by cutting a circular hole in the bottom of 9-cm Petri dishes. A fine mesh nylon cloth was then glued to Petri dishes, covering the holes. The chambers were formed using the inverted Petri dishes with the screened bottoms serving as the tops and the lids forming the base of the chambers. The lids were secured with rubber bands. Five semi-circular pieces of filter paper, with a diameter of 9 cm were arranged so that they were evenly spaced on a sheet of aluminum foil. One (1) mL of 0.5% solavetivone solution, stored at ambient temperature and humidity, was applied to the filter papers. Five untreated semi-circular pieces were marked with the letter “c”, for control, on both sides in pencil or solvent resistant ink. One solavetivone-treated filter paper and one untreated filter paper were placed with the flat sides against each other, creating a full circle, in the lids of five 9-cm Petri dishes, serving as the treatment chambers described above, such that the entire surface of the lid was covered. Prior to addition of the bed bugs, the filter papers were confirmed to be completely dry and free of any residual acetone odor. Ten (10) bed bugs, having received a blood meal no more than 7 days before, were placed onto the untreated piece of paper and covered with the ventilated base of the Petri dish. The containers of each replicate were then kept at ambient laboratory temperature and humidity for the duration of the study. The distribution of the bed bugs on the treated and untreated filter papers was recorded at 0.5, 1, 1.5, 2, and 24 hours after being placed in the containers. Observations were made in darkness with the aid of a red lens flashlight. Gloves and a dust mask were worn by the observer to reduce detection of the bed bugs and to minimize disturbance caused by the observer. Five additional treatment chambers were created as described above, except the treated filter paper was soaked with acetone with 0.1% BHT (control treatment), instead of the 0.5% solavetivone solution. Bed bug distribution in the control chambers were recorded as described for the treatment condition. The solavetivone treatment repellency was calculated from the following equation: R=[(C−T)/C]*100, where R is the % repellency, C is the fraction of bed bugs on the acetone-treated filter papers, and T is the fraction of bed bugs on the solavetivone-treated filter papers. […] A formulation, containing 0.5% 5-epi-β-vetivone and 0.1% butylated hydroxytoluene (BHT) in acetone was tested for efficacy for repelling adult bed bugs (Cimex lectularius). Treatment chambers were prepared as described in Example 1A. Five semi-circular pieces of filter paper, with a diameter of 9 cm were arranged so that they were evenly spaced on a sheet of aluminum foil. One (1) mL of 0.5% 5-epi-β-vetivone solution, stored at ambient temperature and humidity, was applied to the filter papers. Five untreated semi-circular pieces were marked with the letter “c”, for control, on both sides in pencil or solvent resistant ink. One 5-epi-β-vetivone-treated filter paper and one untreated filter paper were placed with the flat sides against each other, creating a full circle, in the lids of five 9-cm Petri dishes, serving as the treatment chambers described above, such that the entire surface of the lid was covered. Prior to addition of the bed bugs, the filter papers were confirmed to be completely dry and free of any residual acetone odor. Ten (10) bed bugs, having received a blood meal no more than 7 days before, were placed onto the untreated piece of paper and covered with the ventilated base of the Petri dish. The containers of each replicate were then kept at ambient laboratory temperature and humidity for the duration of the study. […]

Structure (SMILES)	Repellancy ([1]; 0.5 hr after introduction) [%]	Repellancy ([1]; 1.0 hr after introduction) [%]	Repellancy ([1]; 1.5 hr after introduction) [%]	Repellancy ([1]; 2.0 hr after introduction) [%]	Repellancy ([1]; 24.0 hr after introduction) [%]	Repellancy, Averages [1] [%]	# bed bugs on the treated filter paper ([1]; 0.5 hr)	# bed bugs on the treated filter paper ([1]; 1.0 hr)	# bed bugs on the treated filter paper ([1]; 1.5 hr)	# bed bugs on the treated filter paper ([1]; 2.0 hr)	# bed bugs on the treated filter paper ([1]; 24.0 hr)	# bed bugs on the treated filter paper, Averages [1]	time for which bed bugs are repelled following treatment [1]	Repellancy ([2]; 0.5 hr) [%]	Repellancy ([2]; 1.0 hr) [%]	Repellancy ([2]; 1.5 hr) [%]	Repellancy ([2]; 2.0 hr) [%]	Repellancy ([2]; 24.0 hr) [%]	Repellancy, Averages [2] [%]	# bed bugs on the treated filter paper ([2]; 0.5 hr)	also measured
CC1=CC(=O)C[C@@H](C)[C@@]12CCC(=C(C)C)C2 [5-epi-β-vetivone]	92.0	94.0	94.0	92.0	96.0	93.6	4	3	3	4	2	3.2	at least 48 hours	88.0	94.0	98.0	96.0	100.0	95.2	6	# bed bugs on the treated filter paper ([2]; 1.0 hr): 3; # bed bugs on the treated filter paper ([2]; 1.5 hr): 1; # bed bugs on the treated filter paper ([2]; 2.0 hr): 2; # bed bugs on the treated filter paper ([2]; 24.0 hr): 0; # bed bugs on the treated filter paper, Averages [2]: 2.4; time for which bed bugs are repelled following treatment [2]: at least 24 hours
C=C(C)[C@@H]1CC[C@@]2(C1)C(C)=CC(=O)C[C@H]2C [Solavetivone, solavetivone]	96.0	96.0	88.0	90.0	90.0	92.0	2	2	6	5	5	4.0	at least 48 hours	92.0	90.0	92.0	96.0	98.0	93.6	4	# bed bugs on the treated filter paper ([2]; 1.0 hr): 5; # bed bugs on the treated filter paper ([2]; 1.5 hr): 4; # bed bugs on the treated filter paper ([2]; 2.0 hr): 2; # bed bugs on the treated filter paper ([2]; 24.0 hr): 1; # bed bugs on the treated filter paper, Averages [2]: 3.2; time for which bed bugs are repelled following treatment [2]: at least 24 hours
